Assay results from PubChem BioAssay (NCI).
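GI50 is the concentration that inhibits growth by half. At the TGI there is no net growth.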

Legend:
Test in all cases: NCI-60 cell line screen, 384-well format
[1] = system: 786-0 renal
[2] = system: A498 renal
[3] = system: A549 NSCLC
[4] = system: ACHN renal
[5] = system: BT-549 breast
[6] = system: CAKI-1 renal
[7] = system: COLO 205 colon
[8] = system: DU-145 prostate
[9] = system: EKVX NSCLC
[10] = system: HCT-116 colon
[11] = system: HCT-15 colon
[12] = system: HL-60(TB) leukemia
[13] = system: HOP-62 NSCLC
[14] = system: HOP-92 NSCLC
[15] = system: HS 578T breast
[16] = system: HT29 colon
[17] = system: IGROV1 ovarian
[18] = system: K-562 leukemia
[19] = system: KM12 colon
[20] = system: M14 melanoma
[21] = system: MALME-3M melanoma
[22] = system: MCF7 breast
[23] = system: MDA-MB-231 breast
[24] = system: MDA-MB-435 melanoma
[25] = system: MDA-MB-468 breast
[26] = system: MOLT-4 leukemia
[27] = system: NCI-H226 lung
[28] = system: NCI-H23 lung
[29] = system: NCI-H322M lung
[30] = system: NCI-H522 lung
[31] = system: OVCAR-3 ovarian
[32] = system: OVCAR-4 ovarian
[33] = system: OVCAR-5 ovarian
[34] = system: OVCAR-8 ovarian
[35] = system: PC-3 prostate
[36] = system: RXF 393 renal
[37] = system: SF-268 CNS
[38] = system: SF-295 CNS
[39] = system: SF-539 CNS
[40] = system: SK-MEL-2 melanoma
[41] = system: SK-MEL-28 melanoma
[42] = system: SK-MEL-5 melanoma
[43] = system: SK-OV-3 ovarian
[44] = system: SN12C renal
[45] = system: SNB-19 CNS
[46] = system: SNB-75 CNS
[47] = system: SR leukemia
[48] = system: SW-620 colon
[49] = system: T-47D breast
[50] = system: TK-10 renal
[51] = system: U251 glioblastoma
[52] = system: UACC-257 melanoma
[53] = system: UACC-62 melanoma
[54] = system: UO-31 renal

O=C(NCCc1ccccc1)C(c1csc2ccccc12)N(C(=O)CCl)c1ccc(-c2cnco2)cc1 (configuration not stated)
GI50 [1]: 16.5 nM
TGI [1]: 33.2 nM
GI50 [2]: 104 nM
TGI [2]: 222 nM
GI50 [3]: 263 nM
TGI [3]: 1580 nM
GI50 [4]: 16 nM
TGI [4]: 30 nM
GI50 [5]: 37.6 nM
TGI [5]: 131 nM
GI50 [6]: < 10 nM
TGI [6]: 19 nM
GI50 [7]: 1460 nM
TGI [7]: 2780 nM
GI50 [8]: 62 nM
TGI [8]: 1400 nM
GI50 [9]: 15.7 nM
TGI [9]: 32.1 nM
GI50 [10]: 287 nM
TGI [10]: 1030 nM
GI50 [11]: 77.6 nM
TGI [11]: 216 nM
GI50 [12]: 21.4 nM
TGI [12]: 36.4 nM
GI50 [13]: 23.7 nM
TGI [13]: 68.4 nM
GI50 [14]: 16.9 nM
TGI [14]: 31.1 nM
GI50 [15]: 113 nM
TGI [15]: 238 nM
GI50 [16]: 127 nM
TGI [16]: 273 nM
GI50 [17]: 18.2 nM
TGI [17]: 34 nM
GI50 [18]: 78.4 nM
TGI [18]: 212 nM
GI50 [19]: 483 nM
TGI [19]: 1640 nM
GI50 [20]: 138 nM
TGI [20]: 288 nM
GI50 [21]: 56.4 nM
TGI [21]: 180 nM
GI50 [22]: 342 nM
TGI [22]: 1480 nM
GI50 [23]: 19.9 nM
TGI [23]: 43.3 nM
GI50 [24]: 432 nM
TGI [24]: 1680 nM
GI50 [25]: 21.5 nM
TGI [25]: 88.1 nM
GI50 [26]: 20.2 nM
TGI [26]: 36.4 nM
GI50 [27]: 193 nM
TGI [27]: 724 nM
GI50 [28]: 16.5 nM
TGI [28]: 35 nM
GI50 [29]: 1680 nM
TGI [29]: 3050 nM
GI50 [30]: < 10 nM
TGI [30]: 15.1 nM
GI50 [31]: 145 nM
TGI [31]: 314 nM
GI50 [32]: 16.8 nM
TGI [32]: 30.8 nM
GI50 [33]: 349 nM
TGI [33]: 1310 nM
GI50 [34]: 19.6 nM
TGI [34]: 56.6 nM
GI50 [35]: 110 nM
TGI [35]: 245 nM
GI50 [36]: 10.8 nM
TGI [36]: 23.2 nM
GI50 [37]: 70.3 nM
TGI [37]: 198 nM
GI50 [38]: 131 nM
TGI [38]: 261 nM
GI50 [39]: 16.5 nM
TGI [39]: 34.9 nM
GI50 [40]: 29.7 nM
TGI [40]: 102 nM
GI50 [41]: 1430 nM
TGI [41]: 2740 nM
GI50 [42]: 358 nM
TGI [42]: 1680 nM
GI50 [43]: 197 nM
TGI [43]: 394 nM
GI50 [44]: 1040 nM
TGI [44]: 2220 nM
GI50 [45]: 1760 nM
TGI [45]: 3160 nM
GI50 [46]: 19.1 nM
TGI [46]: 38 nM
GI50 [47]: 17.6 nM
TGI [47]: 31.9 nM
GI50 [48]: 151 nM
TGI [48]: 289 nM
GI50 [49]: 37.7 nM
TGI [49]: 148 nM
GI50 [50]: 18.6 nM
TGI [50]: 36.4 nM
GI50 [51]: 101 nM
TGI [51]: 239 nM
GI50 [52]: 121 nM
TGI [52]: 412 nM
GI50 [53]: 18 nM
TGI [53]: 34 nM
GI50 [54]: < 10 nM
